Results as given in patent US7521207B2, “Rhesus monkey Nur77” (Merck & Co., Inc., priority 2005, dated 2009).

How the values were obtained:
[1] = tested on: Nur77 expression in 22RV1 cells; assay: Expression of Nur77 in prostrate cancer cells (FIG. 5); type: cell-based; conditions: prostrate cancer cells (22RV1 cells), to various extents
[2] = tested on: Nur77 expression in the seminal vesicles; conditions: orchiectomized (ORX) rats, FIG. 6, to various extents

In the case of `C[C@]12CCC(=O)C[C@@H]1CC[C@@H]1[C@@H]2CC[C@]2(C)[C@@H](O)CC[C@@H]12` [DHT, dihydrotestosterone], the “expression of Nur77” value [1] is reported as “can be controlled” and the “expression of Nur77” value [2] is reported as “can be modulated”.
